From PubChem BioAssay (NCI)
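All cell lines were grown in 96-well plates and treated with compound for 48 hours. GI50 marks 50% less growth. TGI: total growth inhibition.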

Key:
Assay in all cases: inhibition of tumour cell growth, NCI panel, 48 h
[1] = system: SW-620 colon
[2] = system: UO-31 renal
[3] = system: BT-549 breast
[4] = system: EKVX NSCLC
[5] = system: HT29 colon
[6] = system: NCI-H522 lung
[7] = system: OVCAR-3 ovarian
[8] = system: M19-MEL melanoma
[9] = system: SK-OV-3 ovarian
[10] = system: SNB-19 CNS
[11] = system: DU-145 prostate
[12] = system: HCC-2998 colon
[13] = system: DMS 114 small cell lung
[14] = system: COLO 205 colon
[15] = system: A498 renal
[16] = system: SK-MEL-28 melanoma
[17] = system: UACC-62 melanoma
[18] = system: NCI/ADR-RES ovarian
[19] = system: M14 melanoma
[20] = system: SR leukemia
[21] = system: NCI-H460 lung
[22] = system: DMS 273 small cell lung
[23] = system: LXFL 529 NSCLC
[24] = system: 786-0 renal
[25] = system: MDA-MB-231 breast
[26] = system: MCF7 breast
[27] = system: MALME-3M melanoma
[28] = system: HS 578T breast
[29] = system: CCRF-CEM leukemia
[30] = system: NCI-H226 lung
[31] = system: SNB-78 CNS
[32] = system: SNB-75 CNS
[33] = system: OVCAR-8 ovarian
[34] = system: SK-MEL-5 melanoma
[35] = system: OVCAR-4 ovarian
[36] = system: TK-10 renal
[37] = system: CAKI-1 renal
[38] = system: IGROV1 ovarian
[39] = system: MDA-MB-435
[40] = system: T-47D breast
[41] = system: RXF 393 renal
[42] = system: SF-539 CNS
[43] = system: OVCAR-5 ovarian
[44] = system: UACC-257 melanoma
[45] = system: PC-3 prostate
[46] = system: MOLT-4 leukemia
[47] = system: SF-268 CNS
[48] = system: ACHN renal
[49] = system: LOX IMVI melanoma
[50] = system: KM20L2 colon
[51] = system: SN12C renal
[52] = system: SK-MEL-2 melanoma
[53] = system: HL-60(TB) leukemia
[54] = system: NCI-H23 lung
[55] = system: HCT-116 colon
[56] = system: U251 CNS
[57] = system: HCT-15 colon
[58] = system: K-562 leukemia
[59] = system: RXF-631 renal
[60] = system: HOP-62 NSCLC
[61] = system: DLD-1 colon
[62] = system: HOP-92 NSCLC
[63] = system: SF-295 CNS
[64] = system: RPMI-8226 leukemia
[65] = system: KM12 colon
[66] = system: A549 NSCLC
[67] = system: MDA-N
[68] = system: HOP-18 NSCLC
[69] = system: XF 498 CNS

CN(C)C(=S)SN(C)C(=O)Nc1ccccc1
TGI [1]: 42.6 µM
TGI [2]: > 94.7 µM
TGI [3]: > 100 µM
TGI [4]: > 100 µM
TGI [5]: 24.4 µM
TGI [6]: 3.5 µM
TGI [7]: 41.2 µM
TGI [8]: > 31.6 µM
TGI [9]: > 100 µM
TGI [10]: > 100 µM
TGI [11]: > 100 µM
TGI [12]: > 62.9 µM
TGI [13]: 27.4 µM
TGI [14]: > 100 µM
TGI [15]: > 33.8 µM
TGI [16]: 53.6 µM
TGI [17]: 19.1 µM
TGI [18]: 11.1 µM
TGI [19]: 47.9 µM
TGI [20]: 72.3 µM
TGI [21]: > 53.7 µM
TGI [22]: 77.6 µM
TGI [23]: > 100 µM
TGI [24]: > 74.7 µM
TGI [25]: > 100 µM
TGI [26]: > 47.1 µM
TGI [27]: 50.3 µM
TGI [28]: > 100 µM
TGI [29]: > 91.1 µM
TGI [30]: > 92.4 µM
TGI [31]: > 100 µM
TGI [32]: > 92.1 µM
TGI [33]: > 93.7 µM
TGI [34]: 46.4 µM
TGI [35]: 53.5 µM
TGI [36]: > 100 µM
TGI [37]: 60.5 µM
TGI [38]: > 100 µM
TGI [39]: > 72.5 µM
TGI [40]: 99.1 µM
TGI [41]: 6.31 µM
TGI [42]: > 81.1 µM
TGI [43]: > 76 µM
TGI [44]: > 63.1 µM
TGI [45]: > 100 µM
TGI [46]: 85.8 µM
TGI [47]: 99.9 µM
TGI [48]: > 96.4 µM
TGI [49]: 44.7 µM
TGI [50]: > 100 µM
TGI [51]: 89.3 µM
TGI [52]: > 100 µM
TGI [53]: > 71.7 µM
TGI [54]: > 80.5 µM
TGI [55]: > 67.4 µM
TGI [56]: > 93.8 µM
TGI [57]: > 85.3 µM
TGI [58]: > 100 µM
TGI [59]: > 100 µM
TGI [60]: > 100 µM
TGI [61]: > 100 µM
TGI [62]: 22.2 µM
TGI [63]: > 100 µM
TGI [64]: > 100 µM
TGI [65]: 53.8 µM
TGI [66]: > 100 µM
TGI [67]: 43.3 µM

CNC=O.[O]=[Ge].[O]=[Ge].[O]=[Ge].[O]=[Ge][OH].[O]=[Ge][OH]
TGI [1]: > 100 µM
TGI [2]: > 100 µM
TGI [4]: > 100 µM
TGI [5]: > 100 µM
TGI [7]: > 100 µM
TGI [8]: > 100 µM
TGI [10]: > 100 µM
TGI [12]: > 100 µM
TGI [13]: > 100 µM
TGI [15]: > 100 µM
TGI [16]: > 100 µM
TGI [17]: > 100 µM
TGI [19]: > 100 µM
TGI [20]: > 100 µM
TGI [21]: > 100 µM
TGI [22]: > 100 µM
GI50 [23]: > 100 µM
TGI [23]: > 100 µM
TGI [24]: > 100 µM
TGI [68]: > 100 µM
TGI [27]: > 100 µM
TGI [29]: > 100 µM
TGI [30]: > 100 µM
TGI [31]: > 100 µM
TGI [32]: > 100 µM
TGI [33]: > 100 µM
TGI [34]: > 100 µM
TGI [35]: > 100 µM
TGI [36]: > 100 µM
TGI [37]: > 100 µM
TGI [38]: > 100 µM
TGI [41]: > 100 µM
TGI [42]: > 100 µM
TGI [43]: > 100 µM
TGI [44]: > 100 µM
TGI [46]: > 100 µM
TGI [47]: > 100 µM
TGI [48]: > 100 µM
TGI [49]: > 100 µM
TGI [50]: > 100 µM
TGI [51]: > 100 µM
TGI [52]: > 100 µM
TGI [53]: > 100 µM
TGI [54]: > 100 µM
TGI [55]: > 100 µM
TGI [57]: > 100 µM
TGI [58]: > 100 µM
TGI [60]: > 100 µM
TGI [61]: > 100 µM
TGI [62]: > 100 µM
TGI [63]: > 100 µM
TGI [69]: > 100 µM
TGI [64]: > 100 µM
TGI [65]: > 100 µM
TGI [66]: > 100 µM
